{"source": "paper PMC10229426", "about": "“An optimized bioluminescent substrate for non-invasive imaging in the brain” (Nature Chemical Biology, 2023)", "key": {"Antares": {"target": "Antares (Oplophorus gracilirostris, UniProt Q9GV45, A31E/A60N/A81I/F95D/I117V/K70R/L54V/L99Q/M102K/N193R/P142E/Q151K/Q38R/Q45L/V71I/Y165I)", "sequence (Q9GV45 other isoform, or with tags, fused parts or gaps with the stated changes)": "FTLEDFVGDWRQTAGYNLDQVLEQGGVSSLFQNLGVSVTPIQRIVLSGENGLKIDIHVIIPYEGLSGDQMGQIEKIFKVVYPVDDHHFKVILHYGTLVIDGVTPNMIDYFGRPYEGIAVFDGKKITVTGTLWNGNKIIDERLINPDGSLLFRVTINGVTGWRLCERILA", "test": "Comparison of bioluminescence in luciferase-transduced (AAV) mouse brain hippocampus", "assay_type": "in vivo, J:NU mice", "design": "P2A-mNeonGreen (self-cleaving; mNeonGreen is separated and a P2A remnant stays on Antares) (C); expressed in transfected cells; host or cells: hippocampus of J:NU mice transduced with AAV.DJ", "description": "For AAV packaging, pAAV-CMV-AkaLuc-P2A-mNeonGreen-WPRE plasmid and pAAV-CMV-Antares-P2A-mNeonGreen-WPRE were amplified and purified by a PureLink Expi endotoxin-free maxi plasmid purification kit (Invitrogen) and were sent to Stanford Gene Vector and Virus Core to produce and titer AAV.DJ vectors. Under sterile conditions, 12-week-old male J:NU mice (Jackson Laboratory, 007850) were anesthetized with isoflurane and secured in a stereotaxic frame (RWD Life Science), and a hole the size of the needle was drilled through the skull. A Hamilton syringe with a 33-gauge needle was inserted at anteroposterior −2.2 mm, mediolateral +1.7 mm and dorsoventral −1.7 mm. […] The needle was left in place for 3 min after each injection to minimize upward flow of viral solution. Two to 3 weeks after AAV infection, mice were injected i.p. with the indicated amount of CFz, Akalumine or FFz and imaged on the Ami HT (binning of 1 × 1 and exposure time of 10 s)."}, "[1]": {"test": "Toxicity in mice: necropsy and histopathology", "assay_type": "in vivo, C57BL/6 mice", "design": "key to BMH, brain multifocal hemorrhage score / HN, hepatocellular necrosis score / RTD, renal tubular dilation score / RTDR, renal tubular degeneration and regeneration score: 0: absent; 1: minimal; 2: mild; 3: moderate; 4: severe; key to HMNH, heart myocardial necrosis and hemorrhage score: 0: no lesions; 1: <5% of myocardium affected; 2: 5-10% affected; 3: 10-25% affected; 4: >25% affected; key to SRPHMV, splenic red pulp histiocytosis with microvesicular vacuolation score: 0: no lesions; 1: lesions present; key to LC, Liver capsule score: 0: normal; 1: segmental subcapsular necrosis +/- neutrophilic infiltrate; Total organ score: scale not given here", "conditions": "for toxicity after a single i.p. injection: 4.2 µmol with 20 mg P-407, one injection; for BMH, brain multifocal hemorrhage score / HMNH, heart myocardial necrosis and hemorrhage score / HN, hepatocellular necrosis score / LC, Liver capsule score / RTD, renal tubular dilation score / RTDR, renal tubular degeneration and regeneration score / SRPHMV, splenic red pulp histiocytosis with microvesicular vacuolation score / Total organ score / ∆ weight: individual mice", "procedure": "(§1) Male C57BL/6 mice of 2 months of age were killed by CO2 asphyxiation and cardiac exsanguination. All mice were weighed, and a complete gross examination of the external and internal organs was performed. […] Formalin-fixed tissues were processed routinely, embedded in paraffin, sectioned at 5 μm and stained with hematoxylin and eosin. All slides were blindly evaluated for histologic treatment-related effects (Supplementary Table 1) by a board-certified veterinary pathologist."}, "[2]": {"test": "Toxicity in mice: necropsy and histopathology", "assay_type": "in vivo, C57BL/6 mice", "design": "key: 0: absent; 1: minimal accumulation; 2: mild accumulation; 3: moderate accumulation; 4: severe accumulation", "conditions": "individual mice", "procedure": "as §1"}}, "note": "Several values for one entry are separate records, joined by “and”; a condition that tells them apart may be missing. Equal entries are not always repeated. Entries after “also recorded” stand apart in the source; their conditions may differ."}
{"smiles": "O=c1c(Cc2ccco2)nc2c(Cc3ccccc3)[nH]c(-c3cccc(F)c3F)cn1-2", "note": "[compound 6, cephalofurimazine]", "values": [{"measurement": "peak signal relative to 3.0 µmol of AkaLumine", "setting": "Antares; 1.3 µmol CFz i.p., Antares and AkaLuc AAV co-infected hippocampus", "value": "comparable peak signal"}, {"measurement": "brightness relative to 3 µmol of AkaLumine", "setting": "Antares; CFz dose 3 µmol i.p., Antares and AkaLuc AAV co-infected hippocampus, listed as CFz", "value": "threefold more signal; also recorded: about threefold higher"}, {"measurement": "brightness relative to FFz", "setting": "Antares; i.p., Antares AAV in hippocampus", "value": "brighter than FFz by at least an order of magnitude"}, {"measurement": "weight loss", "setting": "[1]; 1.3 µmol CFz with 12 mg P-407, daily for 3 or 5 d", "value": "< 5", "unit": "%"}, {"measurement": "effects on organ tissues after daily administration", "setting": "[1]; 1.3 µmol CFz with 12 mg P-407, daily i.p. for 3 or 5 d, listed as CFz", "value": "mild and well tolerated and Renal lesions were minimal to absent"}, {"measurement": "toxicity after three daily i.p. injections", "setting": "[1]; 4.2 µmol CFz with 20 mg P-407", "value": "noticeably toxic to organs"}, {"measurement": "toxicity after a single i.p. injection", "setting": "[1]", "value": "minimal effects on heart and kidney tissues without weight loss"}, {"measurement": "toxicity after a single i.p. injection", "setting": "[1]; listed as CFz", "value": "minimal toxicity"}, {"measurement": "BMH, brain multifocal hemorrhage score", "setting": "[1]; 1 day, 4.2 µmol, 20 mg P-407", "value": 0}, {"measurement": "HMNH, heart myocardial necrosis and hemorrhage score", "setting": "[1]; 1 day, 4.2 µmol, 20 mg P-407", "value": "1 (<5% of myocardium affected) and 0 (2×)"}, {"measurement": "HN, hepatocellular necrosis score", "setting": "[1]; 1 day, 4.2 µmol, 20 mg P-407", "value": 0}, {"measurement": "LC, Liver capsule score", "setting": "[1]; 1 day, 4.2 µmol, 20 mg P-407", "value": 0}, {"measurement": "RTD, renal tubular dilation score", "setting": "[1]; 1 day, 4.2 µmol, 20 mg P-407", "value": "0 and 1 (<5% of tubules affected) (2×)"}, {"measurement": "RTDR, renal tubular degeneration and regeneration score", "setting": "[1]; 1 day, 4.2 µmol, 20 mg P-407", "value": "0 (2×) and 1 (<5% of tubules affected)"}, {"measurement": "SRPHMV, splenic red pulp histiocytosis with microvesicular vacuolation score", "setting": "[1]; 1 day, 4.2 µmol, 20 mg P-407", "value": 0}, {"measurement": "Total organ score", "setting": "[1]; 1 day, 4.2 µmol, 20 mg P-407", "value": "2 (2×) and 1"}, {"measurement": "∆ weight", "setting": "[1]; 1 day, 4.2 µmol, 20 mg P-407", "value": "–0.7% and +0.3% and +1.4%"}, {"measurement": "BMH, brain multifocal hemorrhage score", "setting": "[1]; 3 days, 1.3 µmol, 12 mg P-407", "value": 0}, {"measurement": "HMNH, heart myocardial necrosis and hemorrhage score", "setting": "[1]; 3 days, 1.3 µmol, 12 mg P-407", "value": "1 (<5% of myocardium affected)"}, {"measurement": "HN, hepatocellular necrosis score", "setting": "[1]; 3 days, 1.3 µmol, 12 mg P-407", "value": "0 (2×) and 2"}, {"measurement": "LC, Liver capsule score", "setting": "[1]; 3 days, 1.3 µmol, 12 mg P-407", "value": 0}, {"measurement": "RTD, renal tubular dilation score", "setting": "[1]; 3 days, 1.3 µmol, 12 mg P-407", "value": "1 (<5% of tubules affected) (2×) and 0"}, {"measurement": "RTDR, renal tubular degeneration and regeneration score", "setting": "[1]; 3 days, 1.3 µmol, 12 mg P-407", "value": "1 (<5% of tubules affected)"}, {"measurement": "SRPHMV, splenic red pulp histiocytosis with microvesicular vacuolation score", "setting": "[1]; 3 days, 1.3 µmol, 12 mg P-407", "value": 0}, {"measurement": "Total organ score", "setting": "[1]; 3 days, 1.3 µmol, 12 mg P-407", "value": "3 and 2 and 5"}, {"measurement": "∆ weight", "setting": "[1]; 3 days, 1.3 µmol, 12 mg P-407", "value": "–2.2%; also recorded: –0.4%; also recorded: –1.1%"}, {"measurement": "BMH, brain multifocal hemorrhage score", "setting": "[1]; 3 days, 4.2 µmol, 20 mg P-407", "value": 0}, {"measurement": "HMNH, heart myocardial necrosis and hemorrhage score", "setting": "[1]; 3 days, 4.2 µmol, 20 mg P-407", "value": "2 (5-10% affected) (2×) and 1 (<5% of myocardium affected)"}, {"measurement": "HN, hepatocellular necrosis score", "setting": "[1]; 3 days, 4.2 µmol, 20 mg P-407", "value": 0}, {"measurement": "LC, Liver capsule score", "setting": "[1]; 3 days, 4.2 µmol, 20 mg P-407", "value": 0}, {"measurement": "RTD, renal tubular dilation score", "setting": "[1]; 3 days, 4.2 µmol, 20 mg P-407", "value": "3 (25%–50% of tubules affected) (2×) and 2 (5%–25% of tubules affected)"}, {"measurement": "RTDR, renal tubular degeneration and regeneration score", "setting": "[1]; 3 days, 4.2 µmol, 20 mg P-407", "value": "3 (25%–50% of tubules affected) and 2 (5%–25% of tubules affected) (2×)"}, {"measurement": "SRPHMV, splenic red pulp histiocytosis with microvesicular vacuolation score", "setting": "[1]; 3 days, 4.2 µmol, 20 mg P-407", "value": 1}, {"measurement": "Total organ score", "setting": "[1]; 3 days, 4.2 µmol, 20 mg P-407", "value": "9 (2×) and 6"}, {"measurement": "∆ weight", "setting": "[1]; 3 days, 4.2 µmol, 20 mg P-407", "value": "–8.3%; also recorded: –3.7%; also recorded: –3.0%"}, {"measurement": "BMH, brain multifocal hemorrhage score", "setting": "[1]; 5 days, 1.3 µmol, 12 mg P-407", "value": 0}, {"measurement": "HMNH, heart myocardial necrosis and hemorrhage score", "setting": "[1]; 5 days, 1.3 µmol, 12 mg P-407", "value": "0 (2×) and 1 (<5% of myocardium affected)"}, {"measurement": "HN, hepatocellular necrosis score", "setting": "[1]; 5 days, 1.3 µmol, 12 mg P-407", "value": 0}, {"measurement": "LC, Liver capsule score", "setting": "[1]; 5 days, 1.3 µmol, 12 mg P-407", "value": 0}, {"measurement": "RTD, renal tubular dilation score", "setting": "[1]; 5 days, 1.3 µmol, 12 mg P-407", "value": 0}, {"measurement": "RTDR, renal tubular degeneration and regeneration score", "setting": "[1]; 5 days, 1.3 µmol, 12 mg P-407", "value": "1 (<5% of tubules affected) (2×) and 0"}, {"measurement": "SRPHMV, splenic red pulp histiocytosis with microvesicular vacuolation score", "setting": "[1]; 5 days, 1.3 µmol, 12 mg P-407", "value": 1}, {"measurement": "Total organ score", "setting": "[1]; 5 days, 1.3 µmol, 12 mg P-407", "value": "1 (2×) and 3"}, {"measurement": "∆ weight", "setting": "[1]; 5 days, 1.3 µmol, 12 mg P-407", "value": "–3.2%; also recorded: –4.6%; also recorded: –1.8%"}, {"measurement": "KCHMV, Kupffer cell hyperplasia and microvesicular vacuolation score", "setting": "[2]; 3 days, 4.2 µmol, 20 mg P-407", "value": 2}, {"measurement": "KCHMV, Kupffer cell hyperplasia and microvesicular vacuolation score", "setting": "[2]; 5 days, 1.3 µmol, 12 mg P-407", "value": 2}]}
